# Laboratory results as given in ChEMBL document CHEMBL3507680, “University of Dundee, Gates Library screen for HepG2 cell viability”.
# Assay: Human HepG2 cell viability assay in 384 well format
# Type: toxicity, cell-based
# Design: dose 125 nL, time 70.5 hour; cytotoxicity at 70.5 h: concentration not given beside the values
# Conditions: HepG2 cells, read-out: Inhibition
row,Structure (SMILES),cytotoxicity at 70.5 h [%]
1,CC(=O)N1CCN(c2nc(C(F)(F)F)nc3sc(C)c(C)c23)CC1,-9.75
2,COc1ccccc1NC(=O)NCCCC(=O)Nc1cn[nH]c1,13.3
3,CSc1ccc(Cl)c(C(=O)N2CCCC(CNS(C)(=O)=O)C2)c1 (stereo not given),17.2
4,Cc1n[nH]c(C2CN(CC(=O)NCCc3ccccc3)CCO2)n1 (stereo not given),9
5,NC(=O)C1CCN(C(=O)NCc2cccnc2OCC(F)(F)F)C1 (stereo not given),-1.73
6,Cc1cc(C)c2c(N3CCC(C(=O)N4CCCC4)CC3)ncnc2n1,-7.41
7,OCCn1cc(CN2CCN(CCOc3ccccc3F)CC2)cn1,16.6
8,Cc1ccc(C2(O)CCN(C(=O)c3sccc3S(N)(=O)=O)CC2)nc1,-4.05
9,CNC(=O)[C@@H]1C[C@@H](N)CN1c1nc(N2CCCC2)nc(C)c1C,-10.2
10,Cc1ccc(N2CC[C@H]3OCC[C@@]3(C(=O)N3CCCO3)C2)nn1,-4.42
11,CCN1CC2(CCC1=O)CCN(C(=O)C(O)c1cccc(Cl)c1)CC2 (stereo not given),-7.18
12,COC[C@@]12CCO[C@@H]1CCN(C(=O)Cc1ccc(C)cc1)C2,31.2
13,Cc1ccc(C)c(CS(=O)(=O)CC(=O)N(C)Cc2cccc(F)c2)c1,21.1
14,N#Cc1cc(S(N)(=O)=O)ccc1NC1CCc2cc(Cl)ccc21 (stereo not given),-11.2
15,O=C1CCNc2ncc(-c3ccc(Cl)cc3)cc2CN1C1CC1,-8.11
16,O=C(Nc1cccc(CNCc2ccccn2)c1)C1CCCC1,-4.03
17,CCn1ccnc1CN(C)Cc1nc(Cc2cccc(F)c2)no1,11.1
18,O=C(c1ccncc1)N1C[C@@H](OCc2cccnc2)[C@H]2OCCC[C@H]21,-10.2
19,Cn1cc(C(=O)CC2CCCN2C(=O)c2ccn3ccnc3c2)cn1 (stereo not given),-10.3
20,Cc1ccc(N2CC[C@H]3O[C@H](C(=O)N4CCCCO4)CC[C@H]32)nn1,-3.7
21,Cc1ccn(CC(=O)Nc2cc(-c3ccncc3)[nH]n2)n1,-2.4
22,CC(C)COC1CCN(S(=O)(=O)Cc2cccc(F)c2)CC1,-14.2

row,Structure (SMILES),cytotoxicity at 70.5 h [%]
1,CC(=O)NCC(=O)N1Cc2nccn2CC(CN2CCCC2=O)C1 (stereo not given),-7.77
2,CS(=O)(=O)NC[C@]12COC[C@H]1CN(C(=O)C1CCSCC1)C2,-5.88
3,CN(C)C(=O)N1CCC2(CC1)CN(CC1CC1)CC21CCNC1=O (stereo not given),0.0936
4,Cc1ccccc1CSc1nc(N)cc(N2CCCC(C(N)=O)C2)n1 (stereo not given),-2.56
5,CC(=O)NCCCC(=O)NC(C)c1nnc2n1CCC2 (stereo not given),-11.1
6,O=C(C1CCCO1)N1CCc2ncnc(NC3CCC3)c2CC1 (stereo not given),-15.3
7,CC1=N[C@@]2(CC[C@@H]3CN(CC(=O)N(C)C)C[C@@H]32)C(=O)N1CC(C)C,52.3
8,Cc1ccc(-c2nc(CN(Cc3cccs3)CC3CCCO3)no2)cc1 (stereo not given),-8.66
9,Cc1ccc(OCC(=O)N2C[C@@H]3CN(C)CCO[C@@H]3C2)cc1,-7.41
10,Cc1ccoc1-c1nnc(CN2CCCC(Cn3cncn3)C2)o1 (stereo not given),-6.83
11,CNS(=O)(=O)CC(=O)NC(C)Cc1ccc(Br)cc1 (stereo not given),2.68
12,CC(C)CCC(C)NC(=O)c1ccc(OCC(N)=O)cc1 (stereo not given),-3.72
13,c1cc(NC2CC3(CCN(Cc4cscn4)C3)C2)ncn1 (stereo not given),-7.63
14,CS(=O)(=O)Cc1nc(C2CC2)nn1-c1ccccn1,4.03
15,CCc1nc(C2CCCN(C(=O)NC(C)C)C2)no1 (stereo not given),21.2
16,O=C(Cn1cccn1)N1CCC(c2nnc(C(F)(F)F)o2)CC1,30.9
17,O=C(c1n[nH]cc1Cl)N1CCOCC1,-6.1
18,NS(=O)(=O)c1ccc(CNC(=O)c2ccc(Cl)cc2F)cc1,5.61
19,CCOc1ccccc1CNC(=O)N1CCC(Cc2cnn(C)c2)C1 (stereo not given),7.83
20,COc1ccc(OCc2nc(C(=O)N3CCCNC(=O)C3)co2)cc1,-2.16
21,NC(=O)C1CN(c2ncnc3c2Cc2ccccc2OC3)CCO1 (stereo not given),-3.79
22,CC(NC(=O)NCC1(c2ccc(F)cc2)CCC1)c1nncn1C (stereo not given),-16.8

row,Structure (SMILES),cytotoxicity at 70.5 h [%]
1,Cc1cn2nc(N3CCCC3C(=O)N3CCN(C)CC3)sc2n1 (stereo not given),13.5
2,COC(=O)CCC(=O)N1CCC2(CN(Cc3ccc(Cl)cc3)C2)C1,-6.67
3,Cc1cn2c(n1)C(CNCC1=Cc3cc(Cl)ccc3OC1)CCC2 (stereo not given),3.13
4,CCc1nc2c(s1)C(N(C)C(C)=O)CCC2 (stereo not given),-7.14
5,CC(C)[C@H]1CN(Cc2ccccn2)C[C@@H]1NC(=O)CCS(C)(=O)=O,-4.06
6,CCN1CC(C(=O)NCc2ccnc(-n3ccnc3C)c2)CC1=O (stereo not given),-1.78
7,COc1ccc(C(N)=O)cc1NCc1ncc(C(C)(C)C)o1,-81.1
8,CC(=O)N1CCC(c2[nH]ncc2S(C)(=O)=O)CC1,-5.52
9,C1Cc2nc(CCNc3nc(C4CC4)nc4c3CCNCC4)sc2C1,-4.01
10,COCc1nc(C(=O)N2CCN(Cc3cc(C)on3)CC2)cs1,-5.75
11,O=C(C1CCC2(CCN(c3ncccn3)CC2)CO1)N1CCCC1 (stereo not given),-5.27
12,CCS(=O)(=O)N1CCN(CC2CC2)c2ncccc2C1,-2.09
13,Cc1cccc(S(=O)(=O)NCC(C)(C)CC(C)O)c1C#N (stereo not given),-6.31
14,C1CC(CN2C[C@@H]3C[C@@H](c4nnc(C5CC5)o4)O[C@@H]3C2)C1,27.7
15,O=C(CC1CC1)N1CCCC2(CCC(=O)N2CC2CC2)CC1 (stereo not given),-8.2
16,CC(Nc1cccc(CN2CCOC2=O)c1)C(=O)Nc1ccccc1F (stereo not given),-7.83
17,NC(=O)CN1CCN(c2ccnc3c(F)ccc(F)c23)CC1,-1.57
18,CCn1ccc(C(=O)N2CCOC(c3nc(-c4cccs4)no3)C2)n1 (stereo not given),-4.33
19,Cc1nc(CNCC2CN(C)CCO2)cs1 (stereo not given),-4.42
20,CCC(C)c1ccc(NC(=O)C2CCN(C(=O)N(C)C)CC2)cc1 (stereo not given),-4.2
21,CCn1cc(NC(=O)CN2CCC(Oc3ccc(F)cc3)CC2)c(C)n1,5.01
22,CC(C)c1n[nH]c(C2CN(C(=O)CCCn3cccn3)CCO2)n1 (stereo not given),-3.52

row,Structure (SMILES),cytotoxicity at 70.5 h [%]
1,Cc1cc(C)n(CC(=O)N2CCCC2c2cc3cccnc3[nH]2)n1 (stereo not given),2.7
2,Cc1noc([C@H]2CC[C@@H]3[C@@H](CCN3S(=O)(=O)C3CC3)O2)n1,-3.57
3,Cc1cc2c(=O)n3c(nc2s1)CCN(C(=O)c1sc(C)nc1C)CC3,-2.56
4,CCc1cc(NCCNC(C)=O)nc(N2CCOCC2)n1,-13.2
5,O=C(c1cc(=O)n(-c2ccccc2)[nH]1)N1CCOC(C(F)(F)F)C1 (stereo not given),5.57
6,CC(C)c1nc(CN(C)CC2CCN(CCO)CC2)no1,-5.69
7,CCc1cc(=O)[nH]c2nnc(SCC(=O)N3CCC(C)CC3)n12,19.7
8,Cc1cc(C2CCCN2c2ncc(C(N)=O)cc2Cl)no1 (stereo not given),-0.208
9,CCOCC1CN(C(=O)Cc2ccccn2)Cc2c1cnn2C (stereo not given),-7.19
10,CCOC(C)c1nccn1CC(=O)Nc1cc(C)on1 (stereo not given),-0.0484
11,Cc1nc(C)c(CC(=O)Nc2nc(C)c(C)s2)c(=O)[nH]1,-17.1
12,COC[C@@H]1CCCN1C(=O)c1cc(-c2cccc(OC)c2)n[nH]1,-2.07
13,CCn1cc(CN2CCCN(C(=O)c3ccc(C)nc3)CC2)cn1,-6.02
14,O=C1CC[C@H]2[C@H](CCN2C(=O)c2ccc[nH]2)N1CCN1CCOCC1,19.1
15,Cc1nc(CNc2nc3c(s2)c(C)nn3C)cs1,-8.75
16,CC(C)(O)C1CCCN(C(=O)Nc2nc(-c3ccccc3)ns2)C1 (stereo not given),-3.5
17,CC(=O)N1CCc2c(nc(-c3ccncc3)nc2N(C)CC(O)CO)C1 (stereo not given),-9.59
18,Cc1noc(C)c1CN(C)CCc1nc(-c2cccc(Cl)c2)no1,-10.4
19,CC(C)c1nccn1C1CCCN(C(=O)c2ccc(=O)n(C)n2)C1 (stereo not given),-8.03
20,CS(=O)(=O)N[C@@H]1CCN(Cc2cccs2)[C@H]1Cc1cccnc1,-18.1
21,CC(=O)N1CCN(C(=O)Nc2ccccc2)CC2(CC(=O)N(C)C2)C1 (stereo not given),26.3
22,Cn1cccc1C(O)CNC(=O)COc1ccccc1F (stereo not given),-8.88

row,Structure (SMILES),cytotoxicity at 70.5 h [%]
1,CCCN(C(=O)c1cnccn1)c1nc2c(s1)CCc1c-2cnn1C,7.37
2,Cc1cc(CN(C)c2nc(-c3ccco3)nc3c2CCN(C)CC3)on1,-22.6
3,Cc1ccc(C(F)(F)F)cc1C(=O)N[C@H]1CN(CCO)C[C@@H]1C1CC1,-3.09
4,O=C(Nc1nc2c(s1)CN(S(=O)(=O)C1CC1)CC2)c1ccccn1,-1.49
5,CCCN1CCC(N(C)CCC(=O)Nc2ccccc2SC)CC1,1.62
6,Cn1ccnc1CNCC1CCCN1c1cccnn1 (stereo not given),-4.3
7,O=C(NC1CC2(CCN(CCO)CC2)c2ccccc21)c1ccsc1 (stereo not given),8.71
8,NC(=O)COc1ccc(CN2CCNC(C(=O)NC3CC3)C2)cc1Cl (stereo not given),-10.1
9,CN(C(=O)NC1CC1)C1CCN(c2ccc(Cl)cc2)CC1,-7.5
10,COc1ccccc1C1(CNc2snc(Cl)c2C#N)CCOCC1,-4.49
11,CN(C)C(=O)[C@@H]1CCO[C@@H]2CCN(CCOCc3ccccc3)C[C@H]21,20.6
12,CNC(=O)[C@H]1C[C@@H]2CN(S(=O)(=O)c3ccccc3)C[C@@H]2N1C(C)=O,-3.07
13,Cn1cc(NC(=O)CNC(=O)N2CCN(c3ccccc3)CC2)cn1,-8.66
14,c1c(CN2CCCC2)nc2n1CCNC2,9.22
15,COc1ccc2c(=O)n(CC3CCCN(C)C3)ccc2c1OC (stereo not given),10.5
16,CCS(=O)(=O)N1CCOC2(CCCN(Cc3ccccn3)C2)C1 (stereo not given),-1.63
17,Cc1nc(-c2ccc(Cl)s2)sc1C(=O)NC(C)(C)C(N)=O,-4.82
18,C=C(C)COc1ccccc1CN1CCC(NC(C)=O)CC1,25.2
19,O=C1NCCN(CC2CCCCC2)C1CC(=O)N1CCc2n[nH]cc2C1 (stereo not given),-1.96
20,COc1cccc(-c2noc(-c3ccc(NCC4CC4)nc3)n2)c1OC,-2.04
21,CC(C)(C)NC(=O)CNc1ncc(Br)cn1,0.722
22,CCc1cnc(N2C[C@H]3C[C@H](C(=O)N(C)C)[C@@H](C2)O3)nc1,-7.47
